{"source": "ChEMBL document CHEMBL5154820", "about": "(Eur J Med Chem, 2022)", "key": {"HeLa [1]": {"tested_on": "HeLa", "assay": "Antimigratory activity against human HeLa cells at 0.2 uM measured after 24 hrs by scratch wound healing based fluorescence inverted microscopic analysis", "type": "functional"}, "[2]": {"assay": "Nephrotoxicity in BABL/c mouse assessed as increased creatinine level at 30 mg/kg, ip administered daily for 21 days relative to vehicle", "type": "toxicity, organism-based", "conditions": "in vivo, 504 h, time 21 day"}, "HeLa [3]": {"tested_on": "HeLa", "assay": "Induction of apoptosis in human HeLa cells assessed as early apoptotic cells at 0.4 uM measured after 24 hrs by Annexin V-FITC/7-AAD staining based flow cytometric analysis (reference value: 20.8%)", "type": "functional"}, "[4]": {"assay": "Nephrotoxicity in BABL/c mouse assessed as increased urea nitrogen level at 30 mg/kg, ip administered daily for 21 days relative to vehicle", "type": "toxicity, organism-based", "conditions": "in vivo, 504 h, time 21 day"}, "HeLa [5]": {"tested_on": "HeLa", "assay": "Inhibition of colony formation in human HeLa cells at 20 nM and treated for every 48 hrs with fresh medium measured after 14 days by crystal violet staining method ( Rvb = 67.3%)", "type": "functional", "parameters": "scale not given: the % may be the effect or the level left", "conditions": "time 14 day"}, "[6]": {"assay": "Acute toxicity against ICR mouse assessed as inflammatory cell infiltration in liver at 1000 mg/kg, ip measured after 14 days by H and E staining method", "type": "organism-based", "conditions": "in vivo, 336 h, time 14 day"}, "[7]": {"assay": "Toxicity against BABL/c mouse assessed as glomerular crescent hyperplasia in kidney at 60 mg/kg, ip administered daily for 21 days by H and E staining method", "type": "organism-based", "conditions": "in vivo, 504 h, time 21 day"}, "[8]": {"assay": "Acute toxicity against ICR mouse assessed as morphological changes in heart at 1000 mg/kg, ip measured after 14 days by H and E staining method", "type": "organism-based", "conditions": "in vivo, 336 h, time 14 day"}, "[9]": {"assay": "Toxicity against BABL/c mouse assessed as morphological changes in heart at 30 mg/kg, ip administered daily for 21 days followed by addition of 3 mg/kg DDP for every 2 days by H and E staining method", "type": "organism-based", "conditions": "in vivo, 504 h, time 21 day"}, "[10]": {"assay": "Nephrotoxicity in BABL/c mouse assessed as increased creatinine level at 60 mg/kg, ip administered daily for 21 days relative to vehicle", "type": "toxicity, organism-based", "conditions": "in vivo, 504 h, time 21 day"}, "HeLa [11]": {"tested_on": "HeLa", "assay": "Induction of cell cycle arrest in human HeLa cells assessed as 2N cells at 0.2 uM measured after 24 hrs by propidium iodide staining based flow cytometric analysis analysis ( Rvb = 47.4%)", "type": "functional"}, "[12]": {"assay": "Acute toxicity against ICR mouse assessed as regeneration of renal tubule in kidney at 1000 mg/kg, ip measured after 14 days by H and E staining method", "type": "organism-based", "conditions": "in vivo, 336 h, time 14 day"}, "HeLa [13]": {"tested_on": "HeLa", "assay": "Induction of apoptosis in human HeLa cells assessed as necrotic cells at 0.1 uM measured after 24 hrs by Annexin V-FITC/7-AAD staining based flow cytometric analysis (reference value: 0.56%)", "type": "functional"}, "HeLa [14]": {"tested_on": "HeLa", "assay": "Induction of apoptosis in human HeLa cells assessed as late apoptotic cells at 0.2 uM measured after 24 hrs by Annexin V-FITC/7-AAD staining based flow cytometric analysis (reference value: 8.51%)", "type": "functional"}, "[15]": {"assay": "Acute toxicity against ICR mouse assessed as glycogen deposition in liver at 1000 mg/kg, ip measured after 14 days by H and E staining method", "type": "organism-based", "conditions": "in vivo, 336 h, time 14 day"}, "HeLa [16]": {"tested_on": "HeLa", "assay": "Induction of cell cycle arrest in human HeLa cells assessed as >4N cells at 0.4 uM measured after 24 hrs by propidium iodide staining based flow cytometric analysis analysis ( Rvb = 8.84%)", "type": "functional"}, "Tubulin (Sus scrofa)": {"molecular_target": "Tubulin (Sus scrofa) (UniProt P02554+P02550)", "sequence (P02550 whole entry, looked up)": "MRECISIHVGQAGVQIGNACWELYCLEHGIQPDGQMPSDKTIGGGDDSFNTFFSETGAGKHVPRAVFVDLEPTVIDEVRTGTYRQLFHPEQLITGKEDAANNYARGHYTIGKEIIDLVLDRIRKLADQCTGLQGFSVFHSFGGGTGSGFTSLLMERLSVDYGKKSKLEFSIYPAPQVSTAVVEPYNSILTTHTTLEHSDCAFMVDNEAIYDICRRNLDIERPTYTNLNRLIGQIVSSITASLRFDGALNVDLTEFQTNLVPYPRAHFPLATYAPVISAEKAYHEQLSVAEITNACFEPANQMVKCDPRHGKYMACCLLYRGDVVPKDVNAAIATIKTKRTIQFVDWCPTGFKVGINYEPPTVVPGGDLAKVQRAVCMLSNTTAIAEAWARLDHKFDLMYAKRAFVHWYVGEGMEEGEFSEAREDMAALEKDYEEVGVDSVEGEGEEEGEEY", "sequence (P02554 whole entry, looked up)": "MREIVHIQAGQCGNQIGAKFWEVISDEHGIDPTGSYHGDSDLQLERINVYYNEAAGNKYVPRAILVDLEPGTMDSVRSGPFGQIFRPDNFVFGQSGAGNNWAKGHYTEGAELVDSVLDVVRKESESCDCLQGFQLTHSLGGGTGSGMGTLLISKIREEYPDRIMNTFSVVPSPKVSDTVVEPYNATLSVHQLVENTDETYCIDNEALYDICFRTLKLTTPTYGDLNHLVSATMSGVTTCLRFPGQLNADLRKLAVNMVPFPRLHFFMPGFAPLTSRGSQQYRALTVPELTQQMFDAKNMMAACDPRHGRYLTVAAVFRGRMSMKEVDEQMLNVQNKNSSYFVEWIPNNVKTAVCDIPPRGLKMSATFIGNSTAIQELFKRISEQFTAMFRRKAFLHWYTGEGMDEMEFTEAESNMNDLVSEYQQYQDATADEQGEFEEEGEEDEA", "assay": "Inhibition of pig brain tubulin polymerization at 12.5 uM by spectrophotometer analysis relative to control", "parameters": "scale not given: the % may be the effect or the level left", "conditions": "Sus scrofa domesticus"}, "HeLa [17]": {"tested_on": "HeLa", "assay": "Antitumour activity against human HeLa cells xenografted in BABL/c mouse assessed as reduction in tumor weight at 30 mg/kg, ip administered daily for 21 days followed by addition of 3 mg/kg DDP for every 2 days ( Rvb = 3.36 g)", "type": "functional", "conditions": "time 21 day, 504 h"}, "HeLa [18]": {"tested_on": "HeLa", "assay": "Induction of apoptosis in human HeLa cells assessed as early apoptotic cells at 6 nM measured after 24 hrs by Annexin V-FITC/7-AAD staining based flow cytometric analysis (reference value: 18.8%)", "type": "functional"}, "HeLa [19]": {"tested_on": "HeLa", "assay": "Induction of cell cycle arrest in human HeLa cells assessed as 4N cells at 1.5 nM measured after 24 hrs by propidium iodide staining based flow cytometric analysis analysis ( Rvb = 17.1%)", "type": "functional"}, "HeLa [20]": {"tested_on": "HeLa", "assay": "Induction of apoptosis in human HeLa cells assessed as late apoptotic cells at 1.5 nM measured after 24 hrs by Annexin V-FITC/7-AAD staining based flow cytometric analysis (reference value: 5.22%)", "type": "functional"}, "HeLa [21]": {"tested_on": "HeLa", "assay": "Induction of apoptosis in human HeLa cells assessed as viable cells at 6 nM measured after 24 hrs by Annexin V-FITC/7-AAD staining based flow cytometric analysis (reference value: 75.5%)", "type": "functional", "conditions": "read-out: Activity"}, "HeLa [22]": {"tested_on": "HeLa", "assay": "Induction of cell cycle arrest in human HeLa cells assessed as >4N cells at 1.5 nM measured after 24 hrs by propidium iodide staining based flow cytometric analysis analysis relative to control", "type": "functional"}}}
{"smiles": "CCOc1ccc(-c2cncnc2-c2cc(OC)c(OC)c(OC)c2)cc1Cl", "values": [{"measurement": "Activity", "setting": "HeLa [1]", "result": 40, "unit": "%"}, {"measurement": "Activity", "setting": "[2]", "result": 31, "unit": "%"}, {"measurement": "Activity", "setting": "HeLa [3]", "result": 84.4, "unit": "%"}, {"measurement": "Activity", "setting": "[4]", "result": 1.3, "unit": "%"}, {"measurement": "Activity", "setting": "HeLa [5]", "result": 51.5, "unit": "%"}, {"measurement": "Activity", "setting": "[6]", "result": "Non-Toxic"}, {"measurement": "Activity", "setting": "[7]", "result": "Toxic"}, {"measurement": "Activity", "setting": "[8]", "result": "Non-Toxic"}, {"measurement": "Activity", "setting": "[9]", "result": "Non-Toxic"}, {"measurement": "Activity", "setting": "[10]", "result": 23, "unit": "%"}, {"measurement": "Activity", "setting": "HeLa [11]", "result": 0.82, "unit": "%"}, {"measurement": "Activity", "setting": "[12]", "result": "Non-Toxic"}, {"measurement": "Activity", "setting": "HeLa [13]", "result": 0.5, "unit": "%"}, {"measurement": "Activity", "setting": "HeLa [14]", "result": 6.7, "unit": "%"}, {"measurement": "Activity", "setting": "[15]", "result": "Non-Toxic"}, {"measurement": "Activity", "setting": "HeLa [16]", "result": 1.58, "unit": "%"}, {"measurement": "Activity", "setting": "Tubulin (Sus scrofa)", "result": 77, "unit": "%"}, {"measurement": "Activity", "setting": "HeLa [17]", "result": 2.18, "unit": "g"}]}
{"smiles": "COc1ccc(/C=C\\c2cc(OC)c(OC)c(OC)c2)cc1O", "note": "[COMBRETASTATIN A4]", "values": [{"measurement": "Activity", "setting": "HeLa [18]", "result": 74.2, "unit": "%"}, {"measurement": "Activity", "setting": "HeLa [19]", "result": 22.5, "unit": "%"}, {"measurement": "Activity", "setting": "HeLa [20]", "result": 6.68, "unit": "%"}, {"measurement": "viability at 0.006 µM", "setting": "HeLa [21]", "result": 19.2, "unit": "%"}, {"measurement": "Activity", "setting": "HeLa [22]", "result": 17.9, "unit": "%"}]}
